From PubChem BioAssay AID602187 (Broad Institute, 2012)
Activity calls are given as the source filed them.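 The calls were made as follows: active = compounds lowering yeast growth whose fitted half-maximal concentration is at most twice the top tested dose; inconclusive = flat partial growth drop between 30 and 70 percent, or poor fit; inactive = the rest.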

Key:
[1] = S. cerevisiae growth inhibition on glucose, dose response, glucose medium, OD600, dry powder (AID 602187); settings: S. cerevisiae growth in glucose medium, OD600, 48 h
[2] = tested on: S. cerevisiae growth in glucose medium, OD600, 48 h; experiment: as above

Row | Structure (SMILES) | activity change, negative = inhibition ([1]; at 19.5 µM (top of the series)) | AC50 [2] | further results
1 | O=C(Nc1nnc(-c2ccc3c(c2)CCCC3)o1)c1ccccc1 | -13.1% (inactive) |  | 
2 | Cc1ccc(-c2nc3c(Cl)cc(Cl)cc3c(=O)n2O)cc1 |  | 2.01 µM | 
3 | Oc1c(C(c2ccc(Cl)cc2)N2CCCC2)ccc2cccnc12 (centres undefined) | 7.98% (inactive) |  | 
4 | O=C(Oc1c(Cl)cc(Cl)c2cccnc12)c1ccco1 |  | 0.346 µM | 
5 | Cc1ccc(C(=O)Nc2nc(-c3ccccn3)cs2)cc1 |  | 6.06 µM | 
6 | O=C(Nc1nnc(-c2ccc3c(c2)CCCC3)o1)c1ccc(Cl)cc1Cl | -3.17% (inactive) |  | 
7 | CCCC(=O)NC(c1cccs1)c1cc(Cl)c2cccnc2c1O (centres undefined) |  | 5.88 µM | 
8 | CN1CCN(C(c2ccc(C(F)(F)F)cc2)c2ccc3cccnc3c2O)CC1 (centres undefined) |  | 3.32 µM | 
9 | COc1ccc(-c2nnc(NC(=O)c3ccc(S(=O)(=O)N4CCCc5ccccc54)cc3)o2)cc1 | 19.9% (inactive) |  | 
10 | C=CCNC(=S)N/N=C(\C)c1ccccn1 |  | 6.93 µM | 
11 | Cc1ccc(C(=O)Nc2nnc(-c3ccccc3)o2)cc1C | 28.3% (inactive) |  | 
12 | C/C(=N\NC(=O)c1cc2ccccc2cc1O)c1ccccn1 | -15% (inactive) |  | 
13 | CCOC(=O)N1C(=O)C2(CCCCC2)N(c2ccc(C)cc2)C1=S | 13.1% (inactive) |  | 
14 | O=C(Nc1nc(-c2ccccn2)cs1)c1ccccc1 | -9.7% (inactive) |  | 
15 | O=C(Nc1nc(-c2ccccn2)cs1)c1ccc(Cl)s1 |  | 1.75 µM | 
16 | O=C(NNC(=S)Nc1ccc(Cl)c(Cl)c1)c1ccccn1 |  | 22 µM | 
17 | Cc1cc(C)n(-c2nc3ccccc3c(=O)n2OCC#N)n1 | -16.8% (inactive) |  | 
18 | Oc1c(CN2CCc3ccccc3C2)cc(Cl)c2cccnc12 |  | 15.3 µM | 
19 | Oc1c(CN2CCN(c3ccccc3)CC2)cc(Cl)c2cccnc12 |  |  | activity change, negative = inhibition ([1]; at 23.5 µM (top of the series)): 11.7% (inactive)
20 | Oc1c(C(c2ccccc2Cl)N2CCCCC2)ccc2cccnc12 (centres undefined) |  | 16.3 µM | 
21 | O=C(Nc1nc(-c2ccccc2)cs1)c1ccc(Br)s1 | 25.4% (inactive) |  | 
22 | O=C(Nc1nc(-c2ccc3c(c2)CCCC3)cs1)c1ccccc1 | 34% (inactive) |  | 
23 | O=C(Nc1nc(-c2ccccn2)cs1)c1ccc(Br)s1 |  | 0.737 µM | 
24 | NC(=O)c1cccc(C(=O)Nc2nc(-c3ccc4c(c3)CCCC4)cs2)c1 | 9.9% (inactive) |  | 
